Experimental data: PMC7126369, “Identification of a selective inhibitor of IDH2/R140Q enzyme that induces cellular differentiation in leukemia cells” (Cell Communication and Signaling : CCS, 2020)
Numbering of substitutions follows the chain as printed. Where two headings read alike, the source gives them in different places.

How the values were obtained:
[1] = target: T1, IDH1/R132H (Homo sapiens, UniProt O75874, R132H); assay: Enzymatic assay, IDH1/R132H; assay type: biochemical; conditions: incubation time 16 h, read-out: IC50 for α-KG reduction
T1 construct: FLAG (C); purchased BPS Bioscience
T1 sequence (O75874 whole entry R132H): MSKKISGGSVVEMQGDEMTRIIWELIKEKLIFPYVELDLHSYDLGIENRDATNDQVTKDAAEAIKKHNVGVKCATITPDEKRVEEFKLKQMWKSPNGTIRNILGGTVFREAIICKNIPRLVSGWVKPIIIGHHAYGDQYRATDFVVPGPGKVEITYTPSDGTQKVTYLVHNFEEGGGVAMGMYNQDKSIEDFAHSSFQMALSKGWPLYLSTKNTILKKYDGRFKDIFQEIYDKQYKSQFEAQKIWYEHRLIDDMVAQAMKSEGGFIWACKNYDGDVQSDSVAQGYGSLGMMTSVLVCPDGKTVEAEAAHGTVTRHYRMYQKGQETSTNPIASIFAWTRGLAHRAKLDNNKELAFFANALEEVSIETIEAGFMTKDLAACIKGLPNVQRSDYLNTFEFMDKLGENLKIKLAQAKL
Method: Analogously, a mixture of the IDH1/R132H enzyme (0.2 μg/mL) and NADPH (30 μM) was prepared in the assay buffer [10 mM MgCl2, 150 mM NaCl, 20 mM Tris-Cl (pH 7.5), 0.05% BSA, and 2 mM β-mercaptoethanol], after which compound dilutions were added and incubated for 16 h at 25 °C. The activity was measured using the same method as for IDH2/R140Q.

[2] = target: T2, IDH2/R140Q (Homo sapiens, UniProt P48735, R140Q); assay: Diaphorase/resazurin coupled NADPH depletion enzymatic assay, IDH2/R140Q homodimer; assay type: biochemical; conditions: read-out: IC50 for α-KG reduction
T2 construct: FLAG (C); purchased BPS Bioscience
T2 sequence (P48735 40-452 R140Q): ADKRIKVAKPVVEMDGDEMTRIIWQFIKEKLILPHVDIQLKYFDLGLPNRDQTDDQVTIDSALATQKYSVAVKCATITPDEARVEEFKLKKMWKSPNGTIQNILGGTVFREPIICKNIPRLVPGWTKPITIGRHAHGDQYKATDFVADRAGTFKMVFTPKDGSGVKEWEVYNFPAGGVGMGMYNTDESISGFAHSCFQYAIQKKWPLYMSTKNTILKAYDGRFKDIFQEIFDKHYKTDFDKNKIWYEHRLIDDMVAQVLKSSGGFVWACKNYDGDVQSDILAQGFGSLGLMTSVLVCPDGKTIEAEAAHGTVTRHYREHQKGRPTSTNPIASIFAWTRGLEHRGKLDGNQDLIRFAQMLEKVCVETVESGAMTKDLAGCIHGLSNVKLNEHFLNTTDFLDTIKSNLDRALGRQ
Method: (§1) The compounds were dissolved to a concentration of 20 mM in pure DMSO. Diaphorase/resazurin coupled NADPH deletion or production assays were used to measure the activity of IDH mutants or wild-type IDH (IDH/WT) enzymes. […] Afterwards, 20 μL of the gradient concentrations of compound dilution were added to this mixture and incubated at 25 °C for 1 h or 16 h. […] Further, 20 μL of 4X assay buffer containing 0.6 mM isocitrate was used for enzymatic reaction.

[3] = test system: TF-1(IDH2/R140Q) cells; assay: GM-CSF-independent proliferation assay; assay type: cell-based; conditions: 3 μM, 7 days
Method: (§2) The cell proliferation was detected by CellTiter 96® AQueous One Solution Cell Proliferation Assay Kit (Promega) according to the protocol. Briefly, TF-1(WT) and TF-1(IDH2/R140Q) cells were cultured in complete growth medium that is supplemented with 2 ng/mL GM-CSF. Prior to the proliferation assay, the cells were washed three times with PBS to eliminate GM-CSF. These cells were transferred to 96 well plates (5000 cells per well), with each well containing 100 μL growth medium without GM-CSF, and treated with CP-17 (1 or 3 μM) for 7 days. Then 20 μL per well of CellTiter 96® AQueous One Solution Reagent were added to each well. The plate was incubated at 37 °C for 4 h in a humidified, 5% CO2 atmosphere, and then the absorbance at 490 nm was recorded using a 96-well plate reader. Three independent repetitive experiments were carried out and analyzed by Graphpad Prism 5.0. […] T-test was used to compare the difference significance with control group and the data meet the assumption of the test.

[4] = test system: TF-1(WT) cells; assay: GM-CSF-independent proliferation assay; assay type: cell-based; conditions: 3 μM, 7 days
Method: as §2

[5] = target: T3, IDH1/WT (Homo sapiens, UniProt O75874); assay: Enzymatic assay, IDH1/WT; assay type: biochemical; conditions: incubation time 16 h, read-out: IC50 for isocitrate to α-KG
T3 construct: FLAG (C); purchased BPS Bioscience
T3 sequence (O75874 whole entry): as the sequence (O75874 whole entry R132H) above, with H132R counted along it
Method: A mixture of the IDH1/WT (0.08 μg/mL) and NADP (50 μM) was prepared in the assay buffer [10 mM MgCl2, 150 mM NaCl, 20 mM Tris (pH 7.5), 2 mM β-mercaptoethanol, and 0.05% BSA], after which compound dilutions were added and incubated for 16 h at 25 °C. Other operations were referred to the assay of IDH2/WT.

[6] = test system: TF-1(IDH2/R140Q) cells; assay: Histone methylation assay (western blot); assay type: cell-based; conditions: 1 and 3 μM, 7 days
Method: TF-1(WT) and TF-1(IDH2/R140Q) cells were treated with CP-17 (1 or 3 μM) in the presence of recombinant human GM-CSF for 7 days and then lysed and evaluated for the expression of H3K9me3, H3K4me3, H3K27me3, and H3 with specific antibodies by western blot. The total amount of histone H3 was used as the loading control. Three independent repetitive experiments were carried out.

[7] = target: T4, IDH2/WT (Homo sapiens, UniProt P48735); assay: Diaphorase/resazurin coupled NADPH production enzymatic assay, IDH2/WT; assay type: biochemical; conditions: incubation time 16 h, read-out: IC50 for isocitrate to α-KG
T4 construct: FLAG (C); purchased BPS Bioscience
T4 sequence (P48735 40-452): T2 sequence (P48735 40-452 R140Q) with Q101R
Method: as §1

[8] = test system: TF-1(IDH2/R140Q) cells; assay: EPO-induced differentiation assay; assay type: cell-based; conditions: 1 μM, 7 days
Method: TF-1(WT) and TF-1(IDH2/R140Q) cells were washed three times by PBS to remove GM-CSF and treated with CP-17 (1 or 3 μM) and 5 ng/mL EPO for 7 days.
(§3) TF-1(IDH2R140Q) cells were seeded in a 12-well plate at a density of 5 × 10^4/mL. The test compound was added in different concentration gradients (3000, 1000, 333.33, 111.11, 37.04, 12.35, 4.12, and 1.37 nM). The cells were collected after 3 days of treatment. The cell pellet was suspended in 100 μL 80% aqueous methanol solution, containing 1 μg/mL Phenacetin as the internal standard. The cell lysate was centrifuged at 13,000 rpm for 10 min. The precipitate was removed at 4 °C and stored in an − 80 °C refrigerator. Before injection, the cell lysate was centrifuged again at 13,000 rpm for 10 min. The supernatant was transferred into the liquid phase cannula for injection. The test instrument was a Q Exactive™ Plus-Orbitrap™ MS, Thermo Scientific benchtop quadrupole-orbitrap high resolution mass spectrometer. The column used was Waters™ ACQUITY™ UPLC HSS-T3–1.8 μm, […] × 100 mm (part No. 186003539). The mobile phase was: Phase A, 0.1% aqueous formic acid (chromatographically pure); and Phase B, acetonitrile (chromatographically pure). […] D-2-HG and Phenacetin were monitored by mass transitions of m/z 147 → m/z 129 and m/z 178 → m/z 147, respectively. […]

[9] = test system: TF-1(IDH2/R140Q) cells; assay: D-2-HG assay (LC-MS) in cells; assay type: cell-based; conditions: 72 h, 3 days of treatment, read-out: IC50 of intracellular D-2-HG production
Method: as §3, with “pure). The gradients were set as 1% B for 1.5 min → 70% B for 0.5 min → 1% B for 1.5 min → 0% B. The column was re-equilibrated for 2 min between injections. A temperature of 40 °C was set for the column with a flow rate of 0.2 mL/min.” for “pure).”

[10] = test system: AML patients carrying mutant IDH2; set-up: method as in PMID 29346478, PMID 29346477; conditions: patients responding to Enasidenib; cited from earlier work

Row | SMILES | IC50 [1] [nM] | IC50 ([2]; incubation time 1 h) [nM] | IC50 ([2]; incubation time 16 h) [nM] | GM-CSF-independent growth [3] | Proliferation [4] | IC50 [5] [nM] | Histone methylation (H3K4me3, H3K9me3, H3K27me3) [6] | IC50 [7] [nM] | EPO-induced differentiation (color change, hemoglobin γ expression) [8] | IC50 [9] [nM] | Patients who develop differentiation syndrome [10] [%]
1 | Cc1ccc(Cl)cc1NC(=O)Nc1cc(NC(=O)c2ccccc2)ccc1N1CCCC1 [CP-17, N-(3-(3-(5-chloro-2-methylphenyl)ureido)-4-(pyrrolidin-1-yl)phenyl)benzamide] | > 5000 | 99.9 | 40.8 | significantly inhibited | no obvious effect | > 5000 | dose-dependent decrease in histone methylation | 2270 | restored the EPO-induced color change and hemoglobin γ expression | 141 | –
2 | CC(C)(O)CNc1nc(Nc2ccnc(C(F)(F)F)c2)nc(-c2cccc(C(F)(F)F)n2)n1 [Enasidenib] | – | – | – | – | – | – | – | – | – | – | 11.7
